Drawing on patent US12264173B2 (GILEAD SCIENCES, INC., priority 2020, dated 2025), this text covers EC50 for 17 compounds.

Read-outs that look alike come from different tables or passages of the source. A value given as a limit tells only on which side of the number the result lay.

Common to all, as to assay type: cell-based
Assay [1] deals with HRV16. Kind of assay: HRV16 HeLa EC50 (cytopathic effect in H1-HeLa cells). An outline of the steps:
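H1-HeLa cells seeded one day before, given 3-fold serial compound dilutions in triplicate just prior to infection with pre-titrated virus. Incubated 96 h at 33 °C/5% CO2; protection from cytopathic effect read as viability by CellTiter-Glo luminescence, normalised to infected untreated (0%) and uninfected (100%) controls.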
On the technique in general: Damage to the host cells serves as the signal in cytopathic effect assays.

Assay [2] relates to DENV2 replicon. Kind of assay: DENV-2 Huh-7 Rep EC50 (replicon luminescence). To be noted: read-out: DENV-2 REP Huh7 EC50. An outline of the steps:
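Huh-7 cells carrying a DENV2 replicon, 5,000 cells/well, were incubated with dosed compounds for 48 h at 37° C. EnduRen live-cell substrate was added 1.5 h before luminescence reading. EC50 came from dose-response against DMSO-only wells.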
(In general: A replicon is a self-replicating genome or part of one, used to study replication in cells.)

Assay [3] deals with RSV strain A2. Description: microbe, parasite or virus in culture. The conditions noted are these: Table 3, HEp-2 cells, RSV A2, 4 days, read-out: RSV HEp-2 EC50. In short, it runs like this:
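Cytopathic-effect protection assay: HEp-2 cells (50,000/mL) infected with pre-titered RSV A2 onto 3-fold serial compound dilutions, incubated 4 days at 37° C. Cell viability read by CellTiter-Glo luminescence; percent inhibition derived against 0% and 100% virus-inhibition controls.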

Assay [4] concerns RSV A2. Description: RSV NHBE EC50 (RSV A2 antiviral assay in NHBE cells). The conditions noted are these: Table 3, NHBE cells, RSV A2, 4 days, read-out: RSV NHBE EC50. An outline of the steps:
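NHBE cells (7,500/well, passage ≤6) given 3-fold serially diluted compound (0.05% DMSO final), then infected with RSV A2 at 1×10^4.5 tissue culture infectious doses/mL. After 4 days at 37 °C, viability measured by CellTiter-Glo luminescence at 25 °C.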

Setting [5] is: Table 3; H1-HeLa cells, 96 h; read-out: HRV16 HeLa EC50.
[6] abbreviates: Table 3, Huh-7 DENV2 replicon cells, 48 hours.
Setting [7] is: 96 h, Table 3; H1-HeLa cells, 96 h; read-out: HRV16 HeLa EC50.
The mark [8] stands for this setting: Dengue virus, DENV2, Huh-7, 48 h.
[9] abbreviates: human respiratory syncytial virus, HEp-2, 96 h.
Setting [10] is: human respiratory syncytial virus, NHBE, 96 h.

In general, EC50 refers to the concentration giving half of the maximal effect. With `CCC(=O)O[C@H]1[C@H](c2ccc3c(N)ncnn23)O[C@](C#N)(COP(=O)(N[C@@H](C)C(=O)OC2COC2)Oc2ccccc2)[C@H]1OC(=O)CC` (single isomer, unassigned) [Example 176], the EC50 stood at 142 nM in assay [1] (setting [5]), 9440 nM in assay [2] (setting [6]), 182 nM in assay [3] and 16 nM in assay [4].
As to `CC(C)OC(=O)C(C)NP(=O)(OCC1(C#N)OC(c2ccc3c(N)ncnn23)C(OC(=O)C(C)C)C1OC(=O)C(C)C)Oc1ccc(C(=O)N(C)C)cc1` (single isomer, unassigned) [Example 178], the EC50 in assay [1] (setting [5]) was 1070 nM; in assay [2] (setting [6]), 53200 nM; in assay [3], 633 nM; in assay [4], 163 nM.
In the same order, the values of `CC(C)OC(=O)C(C)NP(=O)(OCC1(C#N)OC(c2ccc3c(N)ncnn23)C(OC(=O)C(C)C)C1OC(=O)C(C)C)Oc1ccc(C(=O)N(C)C)cc1` (single isomer, unassigned) [Example 179] are 731 nM, 29400 nM, 161 nM and 100 nM.
In the same order, the values of `CC(C)C(=O)O[C@H]1[C@H](c2ccc3c(N)ncnn23)O[C@](C#N)(COP(=O)(N[C@@H](C)C(=O)OCC2CCOCC2)Oc2ccccc2)[C@H]1OC(=O)C(C)C` (single isomer, unassigned) [Example 182] are 177 nM, 3500 nM, 88 nM and 17 nM.
In the same order, the values of `CCCOC(=O)[C@H](C)NP(=O)(OC[C@@]1(C#N)O[C@@H](c2ccc3c(N)ncnn23)[C@H](OC(=O)CC)[C@@H]1OC(=O)CC)Oc1ccccc1` (single isomer, unassigned) [Example 188] are 102 nM, 6920 nM, 31 nM and 28 nM.
For `CCCOC(=O)[C@H](C)NP(=O)(OC[C@@]1(C#N)O[C@@H](c2ccc3c(N)ncnn23)[C@H](OC(=O)CC)[C@@H]1OC(=O)CC)Oc1ccccc1` (single isomer, unassigned) [Example 189], the EC50 in assay [1] (setting [5]) turned out to be 114 nM; in assay [2] (setting [6]) it was 8840 nM; in assay [3] it was 36 nM; in assay [4], 51 nM.
On to `CCCOC(=O)[C@H](C)NP(=O)(OC[C@@]1(C#N)O[C@@H](c2ccc3c(N)ncnn23)[C@H](OC(=O)C(C)C)[C@@H]1OC(=O)C(C)C)Oc1ccccc1` (single isomer, unassigned) [Example 191], for which the EC50 was 64 nM in assay [1] (setting [5]), 2700 nM in assay [2] (setting [6]), 23 nM in assay [3] and 8 nM in assay [4].
The like results for `CCCOC(=O)[C@H](C)NP(=O)(OC[C@@]1(C#N)O[C@@H](c2ccc3c(N)ncnn23)[C@H](OC(=O)C(C)C)[C@@H]1OC(=O)C(C)C)Oc1ccccc1` (single isomer, unassigned) [Example 192] were, in that order, 101 nM, 8670 nM, 29 nM and 45 nM.
The like results for `CCC(=O)OC1C(c2ccc3c(N)ncnn23)OC(C#N)(COP(=O)(NC(C)C(=O)OCC2COC2)Oc2ccccc2)C1OC(=O)CC` (single isomer, unassigned) [Example 205] were, in that order, 286 nM, 19000 nM, 164 nM and 21 nM.
The like results for `CC(C)C(=O)OC1C(c2ccc3c(N)ncnn23)OC(C#N)(COP(=O)(NC(C)C(=O)OCC2CCC(N)CC2)Oc2ccccc2)C1OC(=O)C(C)C` (single isomer, unassigned) [Example 208] were, in that order, 15200 nM, > 50000 nM, 2120 nM and 215 nM.
As for `CC(C)C(=O)OC1C(c2ccc3c(N)ncnn23)OC(C#N)(COP(=O)(NC(C)C(=O)OCC2CCC(N)CC2)Oc2ccccc2)C1OC(=O)C(C)C` (single isomer, unassigned) [Example 209], the EC50 in assay [1] (setting [5]) came out at 8520 nM; in assay [2] (setting [6]) it was 31400 nM; in assay [3], 1570 nM; in assay [4], 168 nM.
For `C[C@H](N[P@](=O)(OC[C@@]1(C#N)O[C@@H](c2ccc3c(N)ncnn23)C(OC(=O)c2ccccc2)[C@@H]1OC(=O)c1ccccc1)Oc1ccccc1)C(=O)OC1CCCCC1` (stereo in doubt) [Example 83, (2R,3S,4R,5S)-5-(4-aminopyrrolo[2,1-f][1,2,4]triazin-7-yl)-2-cyano-2-((((S)-(((S)-1-(cyclohexyloxy)-1-oxopropan-2-yl)amino)(phenoxy)phosphoryl)oxy)methyl) tetrahydrofuran-3,4-diyl dibenzoate], the half-maximal effective concentration (EC50) in assay [1] (setting [7]) was 17400 nM; in assay [2] (setting [8]), 5160 nM; in assay [3] (setting [9]), > 100000 nM; in assay [4] (setting [10]), > 5000 nM.
As for `CCC(=O)OC1[C@H](c2ccc3c(N)ncnn23)O[C@](C#N)(COP(=O)(N[C@@H](C)C(=O)OCC2CCOCC2)Oc2ccccc2)[C@H]1OC(=O)CC` (stereo in doubt) [Example 107, (2R,3S,4R,5S)-5-(4-aminopyrrolo[2,1-f][1,2,4]triazin-7-yl)-2-cyano-2-((((((S)-1-oxo-1-((tetrahydro-2H-pyran-4-yl)methoxy)propan-2-yl)amino)(phenoxy)phosphoryl)oxy)methyl)tetrahydrofuran-3,4-diyl dipropionate], the EC50 in assay [1] (setting [7]) stood at 388 nM; in assay [2] (setting [8]), 22400 nM; in assay [3] (setting [9]), 98 nM; in assay [4] (setting [10]) it was 31 nM.
In the case of `CC(=O)OC1[C@H](c2ccc3c(N)ncnn23)O[C@](C#N)(COP(=O)(N[C@@H](C)C(=O)OCC2CCOCC2)Oc2ccccc2)[C@H]1OC(C)=O` (stereo in doubt) [Example 110, (2R,3S,4R,5S)-5-(4-aminopyrrolo[2,1-f][1,2,4]triazin-7-yl)-2-cyano-2-((((((S)-1-oxo-1-((tetrahydro-2H-pyran-4-yl)methoxy)propan-2-yl)amino)(phenoxy)phosphoryl)oxy)methyl)tetrahydrofuran-3,4-diyl diacetate], the EC50 was 2510 nM in assay [1] (setting [7]), 56300 nM in assay [2] (setting [8]), 327 nM in assay [3] (setting [9]) and 40 nM in assay [4] (setting [10]).
The like results for `CC(=O)OC1[C@H](c2ccc3c(N)ncnn23)O[C@](C#N)(COP(=O)(N[C@@H](C)C(=O)OCC2CCN(CC(F)(F)F)CC2)Oc2ccccc2)[C@H]1OC(C)=O` (stereo in doubt) [Example 118, (2R,3S,4R,5S)-5-(4-aminopyrrolo[2,1-f][1,2,4]triazin-7-yl)-2-cyano-2-((((((S)-1-oxo-1-((1-(2,2,2-trifluoroethyl)piperidin-4-yl)methoxy)propan-2-yl)amino)(phenoxy)phosphoryl)oxy)methyl)tetrahydrofuran-3,4-diyl diacetate] were, in that order, 736 nM, 54400 nM, 224 nM and 26 nM.
With `CC(C)CCC(=O)O[C@H]1[C@H](c2ccc3c(N)ncnn23)O[C@](C#N)(CO[P@@](=O)(N[C@@H](C)C(=O)OC2CCCCC2)Oc2ccccc2)[C@H]1OC(=O)CCC(C)C` [Example 78, (2R,3S,4S,5S)-5-(4-aminopyrrolo[2,1-f][1,2,4]triazin-7-yl)-2-cyano-2-((((S)-(((S)-1-(cyclohexyloxy)-1-oxopropan-2-yl)amino)(phenoxy)phosphoryl)oxy)methyl) tetrahydrofuran-3,4-diyl bis(4-methylpentanoate)], the EC50 is 6520 nM in assay [1] (setting [7]), 31800 nM in assay [2] (setting [8]), 1350 nM in assay [3] (setting [9]) and 710 nM in assay [4] (setting [10]).
On to `CC(C)C(=O)O[C@H]1[C@H](c2ccc3c(N)ncnn23)O[C@](C#N)(CO[P@@](=O)(N[C@@H](C)C(=O)O[C@H]2CC[C@H](C(F)(F)F)CC2)Oc2ccccc2)[C@H]1OC(=O)C(C)C` [Example 79, (2R,3S,4S,5S)-5-(4-Aminopyrrolo[2,1-f][1,2,4]triazin-7-yl)-2-cyano-2-((((S)-(((S)-1-oxo-1-((trans-4-(trifluoromethyl)cyclohexyl)oxy)propan-2-yl)amino) (phenoxy)phosphoryl)oxy)methyl)tetrahydrofuran-3,4-diyl bis(2-methylpropanoate)], for which the half-maximal effective concentration (EC50) in assay [1] (setting [7]) was 217 nM; in assay [2] (setting [8]) it was 12400 nM; in assay [3] (setting [9]), 105 nM; in assay [4] (setting [10]) it was 19 nM.
